This passage reports IC50 results from patent US10273248B2, “Glucose uptake inhibitors” (Kadmon Corporation LLC, priority 2015, dated 2019).

One test has as its system glycolysis in HT1080 cells. Put plainly: Glycolysis assay: oligomycin plus compound, cellular ATP by Cell Titer Glo. In kind it is cell-based. Particulars: 10 μM oligomycin, one hour, class symbols. From the text: Therefore, an assay was developed that utilizes the combination of the glucose uptake inhibitors disclosed herein with oligomycin, a well-characterized inhibitor of ATP synthase. Because oligomycin inhibits ATP derived from oxidative phosphorylation, any remaining ATP production is derived from glycolysis. By reading out cellular ATP levels using the Promega Cell Titer Glo kit, the extent of glycolysis inhibition by the glucose uptake inhibitors disclosed herein can be assessed. […] Utilizing this experimental set-up, the IC50 of glycolysis inhibition for each compound can be determined.
Determination of Glucose Uptake/GLUT Activity (Glycolysis Assay):
HT1080 cells (as well as other cell types) were plated to confluency in 96-well plates. Cells were exposed to the combination of 10 μM Oligomycin (to block mitochondrial-derived ATP) and the glucose uptake inhibitors disclosed herein for one-hour, after which glycolytically-derived ATP was measured with the Cell Titer-Glo assay kit (Promega). Dose-response curves of the glucose uptake inhibitors disclosed herein were used to determine the IC50 for GLUT activity.
On the technique in general: ATP-based viability assays read luminescence as a measure of living cells.
The IC50 is the concentration at which inhibition is half-maximal. For the compound `O=C(Nc1cccc(-c2nc(Nc3ccc(-c4cn[nH]c4)cc3)c3sccc3n2)c1)c1cccnc1` [Example 43, N-(3-(4-((4-(1H-pyrazol-4-yl)phenyl)amino)thieno[3,2-d]pyrimidin-2-yl)phenyl)nicotinamide], the IC50 fell in the range of 0.101 to 0.25 µM.

The test is the same for the next values; noted with them: Homo sapiens, HT-1080, 1 h, 10 μM oligomycin, one hour, class symbols.
Regarding `O=C(CN1CCOCC1)Nc1cccc(-c2nc3c(c(Nc4ccc(-c5cn[nH]c5)cc4)n2)COC3)c1` [Example 2, N-(3-(4-((4-(1H-pyrazol-4-yl)phenyl)amino)-5,7-dihydrofuro[3,4-d]pyrimidin-2-yl)phenyl)-2-morpholinoacetamide], the IC50 was greater than 1 µM.

Turning to `CC(C)NC(=O)COc1cccc(-c2nc(Nc3ccc(-c4cn[nH]c4)cc3)c3occc3n2)c1` [Example 3, 2-(3-(4-((4-(1H-pyrazol-4-yl)phenyl)amino)furo[3,2-d]pyrimidin-2-yl)phenoxy)-N-isopropylacetamide], the IC50 lay in the range of 0.251 to 0.5 µM.

As for `O=C(CN1CCOCC1)Nc1cccc(-c2nc(Nc3ccc(-c4cn[nH]c4)cc3)c3occc3n2)c1` [Example 4, N-(3-(4-((4-(1H-pyrazol-4-yl)phenyl)amino)furo[3,2-d]pyrimidin-2-yl)phenyl)-2-morpholinoacetamide], the IC50 was greater than 1 µM.

`Cn1cnc2c(Nc3ccc(-c4cn[nH]c4)cc3)nc(-c3cccc(NC(=O)CN4CCOCC4)c3)nc21` [Example 6, N-(3-(6-((4-(1H-pyrazol-4-yl)phenyl)amino)-9-methyl-9H-purin-2-yl)phenyl)-2-morpholinoacetamide]: the IC50 is greater than 1 µM.

Turning to `O=C(CN1CCOCC1)Nc1cccc(-c2nc(Nc3ccc(-c4cn[nH]c4)cc3)c3sccc3n2)c1` [Example 8, N-(3-(4-((4-(1H-pyrazol-4-yl)phenyl)amino)thieno[3,2-d]pyrimidin-2-yl)phenyl)-2-morpholinoacetamide], the IC50 was greater than 1 µM.

For the compound `CC(C)NC(=O)COc1cccc(-c2nc(Nc3ccc(-c4cn[nH]c4)cc3)c3ccsc3n2)c1` [Example 9, 2-(3-(4-((4-(1H-pyrazol-4-yl)phenyl)amino)thieno[2,3-d]pyrimidin-2-yl)phenoxy)-N-isopropylacetamide], the IC50 fell in the range of 0.101 to 0.25 µM.

In the case of `O=C(CN1CCOCC1)Nc1cccc(-c2nc(Nc3ccc(-c4cn[nH]c4)cc3)c3ccsc3n2)c1` [Example 10, N-(3-(4-((4-(1H-pyrazol-4-yl)phenyl)amino)thieno[2,3-d]pyrimidin-2-yl)phenyl)-2-morpholinoacetamide], the IC50 was greater than 1 µM.

Consider `CC(C)NC(=O)COc1cccc(-c2nc3c(c(Nc4ccc5[nH]ncc5c4)n2)COC3)c1` [Example 11, 2-(3-(4-((1H-indazol-5-yl)amino)-5,7-dihydrofuro[3,4-d]pyrimidin-2-yl)phenoxy)-N-isopropylacetamide], for which the IC50 was greater than 1 µM.

For the compound `CC(C)NC(=O)COc1cccc(-c2nc(Nc3ccc4[nH]ncc4c3)c3ncn(C)c3n2)c1` [Example 13], the IC50 was greater than 1 µM.

Take `Cn1cnc2c(Nc3ccc4[nH]ncc4c3)nc(-c3cccc(NC(=O)CN4CCOCC4)c3)nc21` [Example 14]: the IC50 is greater than 1 µM.

Take `CC(C)NC(=O)COc1cccc(-c2nc(Nc3ccc4[nH]ncc4c3)c3sccc3n2)c1` [Example 15]: the IC50 is greater than 1 µM.

On to `O=C(CN1CCOCC1)Nc1cccc(-c2nc(Nc3ccc4[nH]ncc4c3)c3sccc3n2)c1` [Example 16], for which the IC50 was greater than 1 µM.

`CC(C)NC(=O)COc1cccc(-c2nc(Nc3ccc4[nH]ncc4c3)c3ccsc3n2)c1` [Example 17]: the IC50 was greater than 1 µM.

Turning to `O=C(CN1CCOCC1)Nc1cccc(-c2nc(Nc3ccc4[nH]ncc4c3)c3ccsc3n2)c1` [Example 18], the IC50 was greater than 1 µM.

For the compound `O=C(COc1cccc(-c2nc(Nc3ccc(-c4cn[nH]c4)cc3)c3sccc3n2)c1)NC1CC1` [Example 20], the IC50 is 0.501 to 1 µM.

As for `Cn1cnc2c(Nc3ccc(-c4cn[nH]c4)cc3)nc(-c3cccc(OCC(=O)NC4CC4)c3)nc21` [Example 22], the IC50 was greater than 1 µM.

`O=C(COc1cccc(-c2nc(Nc3ccc(-c4cn[nH]c4)cc3)c3occc3n2)c1)NC1CCC1` [Example 25]: the IC50 was 0.251 to 0.5 µM.

Consider `O=C(COc1cccc(-c2nc(Nc3ccc(-c4cn[nH]c4)cc3)c3occc3n2)c1)NC1CCCC1` [Example 26], for which the IC50 was in the range of 0.251 to 0.5 µM.

Take `O=C(COc1cccc(-c2nc(Nc3ccc(-c4cn[nH]c4)cc3)c3ccsc3n2)c1)NC1CCC1` [Example 27]: the IC50 lay in the range of 0.101 to 0.25 µM.

As to `O=C(COc1cccc(-c2nc(Nc3ccc(-c4cn[nH]c4)cc3)c3ccsc3n2)c1)NC1CCCC1` [Example 28], the IC50 lay in the range of 0.101 to 0.25 µM.

In the case of `Cn1cnc2c(Nc3ccc(-c4cn[nH]c4)cc3)nc(-c3cccc(OCC(=O)NC4CCC4)c3)nc21` [Example 29], the IC50 is 0.251 to 0.5 µM.

On to `Cn1cnc2c(Nc3ccc(-c4cn[nH]c4)cc3)nc(-c3cccc(OCC(=O)NC4CCCC4)c3)nc21` [Example 30], for which the IC50 was 0.101 to 0.25 µM.

As to `CC(C)NC(=O)COc1cc(F)cc(-c2nc3c(c(Nc4ccc(-c5cn[nH]c5)cc4)n2)COC3)c1` [Example 33], the half-inhibitory concentration (IC50) was in the range of 0.501 to 1 µM.

As to `CC(C)NC(=O)COc1cc(F)cc(-c2nc(Nc3ccc(-c4cn[nH]c4)cc3)c3sccc3n2)c1` [Example 34], the half-inhibitory concentration (IC50) is greater than 1 µM.

As to `CC(C)NC(=O)COc1cc(F)cc(-c2nc(Nc3ccc(-c4cn[nH]c4)cc3)c3ccsc3n2)c1` [Example 35], the IC50 was greater than 1 µM.

As for `CC(C)NC(=O)COc1cc(F)cc(-c2nc(Nc3ccc(-c4cn[nH]c4)cc3)c3ncn(C)c3n2)c1` [Example 36], the IC50 is greater than 1 µM.

For `O=C(COc1cccc(-c2nc3c(c(Nc4ccc(-c5cn[nH]c5)cc4)n2)COC3)c1)N1CCOCC1` [Example 37, 2-(3-(4-((4-(1H-pyrazol-4-yl)phenyl)amino)-5,7-dihydrofuro[3,4-d]pyrimidin-2-yl)phenoxy)-1-morpholinoethan-1-one], the IC50 is greater than 1 µM.

In the case of `O=C(COc1cccc(-c2nc(Nc3ccc(-c4cn[nH]c4)cc3)c3sccc3n2)c1)N1CCOCC1` [Example 38, 2-(3-(4-((4-(1H-pyrazol-4-yl)phenyl)amino)thieno[3,2-d]pyrimidin-2-yl)phenoxy)-1-morpholinoethan-1-one], the half-maximal inhibitory concentration (IC50) was 0.501 to 1 µM.

Consider `O=C(COc1cccc(-c2nc(Nc3ccc(-c4cn[nH]c4)cc3)c3ccsc3n2)c1)N1CCOCC1` [Example 39, 2-(3-(4-((4-(1H-pyrazol-4-yl)phenyl)amino)thieno[2,3-d]pyrimidin-2-yl)phenoxy)-1-morpholinoethan-1-one], for which the IC50 was greater than 1 µM.

As to `CNC(=O)COc1cccc(-c2nc(Nc3ccc(-c4cn[nH]c4)cc3)c3sccc3n2)c1` [Example 40, 2-(3-(4-((4-(1H-pyrazol-4-yl)phenyl)amino)thieno[3,2-d]pyrimidin-2-yl)phenoxy)-N-methylacetamide], the IC50 was greater than 1 µM.

For `CCCNC(=O)COc1cccc(-c2nc(Nc3ccc(-c4cn[nH]c4)cc3)c3sccc3n2)c1` [Example 41, 2-(3-(4-((4-(1H-pyrazol-4-yl)phenyl)amino)thieno[3,2-d]pyrimidin-2-yl)phenoxy)-N-propylacetamide], the IC50 is greater than 1 µM.

Regarding `CNC(=O)COc1cccc(-c2nc3c(c(Nc4ccc(-c5cn[nH]c5)cc4)n2)COC3)c1` [Example 42, 2-(3-(4-((4-(1H-pyrazol-4-yl)phenyl)amino)-5,7-dihydrofuro[3,4-d]pyrimidin-2-yl)phenoxy)-N-methylacetamide], the IC50 is greater than 1 µM.
